# ChEMBL document CHEMBL4017476, “Synthesis of novel 5,6-dehydrokawain analogs as osteogenic inducers and their action mechanisms” (Bioorg Med Chem Lett, 2017)
# Calls of active or inactive are those of the source. The rule behind the calls is not given here.
# What was measured:
# MC3T3-E1 [1] = experiment: Osteogenic activity in mouse MC3T3-E1 cells assessed as increase in ALP activity at 30 uM measured after 4 days relative to control; format: functional
# MC3T3-E1 [2] = experiment: Cytotoxicity against mouse MC3T3-E1 cells assessed as cell number at 30 uM measured after 4 days by WST-8 assay relative to control; format: cell-based; settings: mc3t3-e1, 96 h
# MC3T3-E1 [3] = experiment: Osteogenic activity in mouse MC3T3-E1 cells assessed as increase in mineralization at 30 uM measured after 10 days by alizarin red S staining based assay; format: functional, cell-based
# MC3T3-E1 [4] = experiment: Osteogenic activity in mouse MC3T3-E1 cells assessed as increase in mineralization at 0.1 to 60 uM measured after 10 days by alizarin red S staining based assay; format: functional, cell-based
# RAW264 [5] = experiment: Inhibition of RANKL-stimulated osteoclastogenesis in mouse RAW264 cells assessed as reduction in TRAP activity at 20 uM measured after 72 hrs by microscopic analysis; format: functional, cell-based
# SMAD1/5/9 (Mus musculus) [6] = target: T1, SMAD1/5/9 (Mus musculus) (UniProt P70340+P97454+Q9JIW5); experiment: Induction of Smad1/5/8 phosphorylation in mouse MC3T3-E1 cells assessed as ratio of phosphorylated Smad1/5/8 to actin beta protein level at 30 uM measured after 5 mins by Western blot analysis relative to control; format: cell-based
# Mus musculus [7] = species: Mus musculus; experiment: Activation of BMP signaling pathway in mouse MC3T3-E1 cells assessed as increase in Alpl mRNA expression at 10 uM after 2 days by SYBR green-dye based RT-PCR method relative to control; format: cell-based
# RAW264 [8] = experiment: Inhibition of RANKL-stimulated osteoclastogenesis in mouse RAW264 cells assessed as reduction in TRAP-positive multinucleated cells at 20 uM measured after 72 hrs by TRAP staining based microscopic analysis; format: functional, cell-based
# SMAD1/5/9 (Mus musculus) [9] = target: T1, SMAD1/5/9 (Mus musculus); experiment: Induction of Smad1/5/8 phosphorylation in mouse MC3T3-E1 cells assessed as ratio of phosphorylated Smad1/5/8 to actin beta protein level at 30 uM measured after 30 mins by Western blot analysis relative to control; format: cell-based
# MC3T3-E1 [10] = experiment: Osteogenic activity in mouse MC3T3-E1 cells assessed as increase in mineralization at 30 uM measured after 10 days in presence of type-1 BMP receptor kinase inhibitor LDN-193189 by alizarin red S staining based assay; format: functional, cell-based
# SMAD1/5/9 (Mus musculus) [11] = target: T1, SMAD1/5/9 (Mus musculus); experiment: Induction of Smad1/5/8 phosphorylation in mouse MC3T3-E1 cells assessed as ratio of phosphorylated Smad1/5/8 to actin beta protein level at 30 uM measured after 15 mins by Western blot analysis relative to control; format: cell-based
# Mus musculus [12] = species: Mus musculus; experiment: Activation of BMP signaling pathway in mouse MC3T3-E1 cells assessed as increase in Runx2 mRNA expression at 10 uM after 2 days by SYBR green-dye based RT-PCR method relative to control; format: cell-based
# [13] = target: T2, MAP kinase p38 (Mus musculus) (UniProt P47811+O08911+Q9WUI1+Q9Z1B7); experiment: Induction of p38 MAPK phosphorylation in mouse MC3T3-E1 cells assessed as ratio of phosphorylated p38 to unphosphorylated p38 protein level at 30 uM measured after 30 mins by Western blot analysis relative to control; format: cell-based
# MC3T3-E1 [14] = experiment: Osteogenic activity in mouse MC3T3-E1 cells assessed as increase in mineralization at 30 uM measured after 10 days in presence of p38 MAPK inhibitor SB203580 by alizarin red S staining based assay; format: functional, cell-based
# Mus musculus [15] = species: Mus musculus; experiment: Activation of BMP signaling pathway in mouse MC3T3-E1 cells assessed as increase in Bglap mRNA expression at 10 uM after 2 days by SYBR green-dye based RT-PCR method relative to control; format: cell-based
# [16] = target: T2, MAP kinase p38 (Mus musculus); experiment: Induction of p38 MAPK phosphorylation in mouse MC3T3-E1 cells assessed as ratio of phosphorylated p38 to unphosphorylated p38 protein level at 30 uM measured after 15 mins by Western blot analysis relative to control; format: cell-based
# MC3T3-E1 [17] = experiment: Osteogenic activity in mouse MC3T3-E1 cells assessed as increase in ALP activity at 10 uM measured after 4 days relative to control; format: functional, cell-based
# Mus musculus [18] = species: Mus musculus; experiment: Activation of BMP signaling pathway in mouse MC3T3-E1 cells assessed as increase in Bglap mRNA expression after 2 days by SYBR green-dye based RT-PCR method; format: cell-based
# Mus musculus [19] = species: Mus musculus; experiment: Activation of BMP signaling pathway in mouse MC3T3-E1 cells assessed as increase in Osterix mRNA expression after 2 days by SYBR green-dye based RT-PCR method; format: cell-based
# MC3T3-E1 [20] = experiment: Osteogenic activity in mouse MC3T3-E1 cells assessed as increase in mineralization at 30 uM measured after 10 days in presence of BMP2 inhibitor noggin by alizarin red S staining based assay; format: functional, cell-based
# Mus musculus [21] = species: Mus musculus; experiment: Activation of BMP signaling pathway in mouse MC3T3-E1 cells assessed as increase in Osterix mRNA expression at 10 uM after 2 days by SYBR green-dye based RT-PCR method relative to control; format: cell-based
# Mus musculus [22] = species: Mus musculus; experiment: Activation of BMP signaling pathway in mouse MC3T3-E1 cells assessed as increase in Alpl mRNA expression after 2 days by SYBR green-dye based RT-PCR method; format: cell-based
# Mus musculus [23] = species: Mus musculus; experiment: Activation of BMP signaling pathway in mouse MC3T3-E1 cells assessed as increase in Runx2 mRNA expression after 2 days by SYBR green-dye based RT-PCR method; format: cell-based
# MC3T3-E1 [24] = experiment: Osteogenic activity in mouse MC3T3-E1 cells assessed as increase in mineralization at 10 uM measured after 10 days by alizarin red S staining based assay; format: functional, cell-based
# [25] = target: T2, MAP kinase p38 (Mus musculus); experiment: Induction of p38 MAPK phosphorylation in mouse MC3T3-E1 cells assessed as ratio of phosphorylated p38 to unphosphorylated p38 protein level at 30 uM measured after 5 mins by Western blot analysis relative to control; format: cell-based
# MC3T3-E1 [26] = experiment: Cytotoxicity against mouse MC3T3-E1 cells assessed as cell number at 60 uM measured after 4 days by WST-8 assay relative to control; format: cell-based; settings: mc3t3-e1, 96 h
# MC3T3-E1 [27] = experiment: Osteogenic activity in mouse MC3T3-E1 cells assessed as increase in mineralization at 60 uM measured after 10 days by alizarin red S staining based assay; format: functional, cell-based
# MC3T3-E1 [28] = experiment: Osteogenic activity in mouse MC3T3-E1 cells assessed as increase in ALP activity at 60 uM measured after 4 days relative to control; format: functional
structure (smiles),measurement,setting,value
CCOc1ccc(/C=C/c2cc(OC)cc(=O)o2)cc1,fold change (FC),MC3T3-E1 [1],1.32 - 2.87
same,fold change (FC),MC3T3-E1 [2],0.85 to 1.25
same,Activity,MC3T3-E1 [3],Active
COc1cc(/C=C/C2CCCC2)oc(=O)c1,Activity,MC3T3-E1 [1],inactive
same,fold change (FC),MC3T3-E1 [2],0.85 to 1.25
same,Activity,MC3T3-E1 [3],inactive
COc1cc(/C=C/c2ccccc2)oc(=O)c1C,fold change (FC),MC3T3-E1 [2],0.85 to 1.25
same,Activity,MC3T3-E1 [3],inactive
same,Activity,MC3T3-E1 [4],inactive
CCCc1ccc(/C=C/c2cc(OC)cc(=O)o2)cc1,fold change (FC),MC3T3-E1 [2],0.85 to 1.25
CC(C)Oc1ccc2c(=O)c(-c3ccccc3)coc2c1,inhibition,RAW264 [5],Active
COc1cc(/C=C/c2ccc(C)cc2)oc(=O)c1,Activity,MC3T3-E1 [1],Active
same,fold change (FC),MC3T3-E1 [2],0.85 to 1.25
same,Activity,MC3T3-E1 [3],Active
COc1cc(/C=C/C2CCCCC2)oc(=O)c1,fold change (FC),MC3T3-E1 [1],1.32 - 2.87
same,fold change (FC),MC3T3-E1 [2],0.85 to 1.25
same,Activity,MC3T3-E1 [3],Active
CCCCc1ccc(/C=C/c2cc(OC)cc(=O)o2)cc1,Ratio,SMAD1/5/9 (Mus musculus) [6],1.1
same,fold change (FC),Mus musculus [7],2.09
same,Activity,MC3T3-E1 [1],Active
same,inhibition,RAW264 [5],Active
same,inhibition,RAW264 [8],Active
same,Ratio,SMAD1/5/9 (Mus musculus) [9],1.1
same,Activity,MC3T3-E1 [10],inactive
same,Ratio,SMAD1/5/9 (Mus musculus) [11],1.1
same,fold change (FC),Mus musculus [12],1.42
same,Ratio,[13],1.1
same,Activity,MC3T3-E1 [14],inactive
same,fold change (FC),Mus musculus [15],1.33
same,Ratio,[16],1.5
same,Activity,MC3T3-E1 [17],Active
same,fold change (FC),MC3T3-E1 [2],0.85 to 1.25
same,Activity,MC3T3-E1 [3],Active
same,Activity,Mus musculus [18],Dose-dependent effect
same,Activity,Mus musculus [19],Dose-dependent effect
same,Activity,MC3T3-E1 [20],inactive
same,fold change (FC),Mus musculus [21],2.41
same,Activity,Mus musculus [22],Dose-dependent effect
same,Activity,Mus musculus [23],Dose-dependent effect
same,Activity,MC3T3-E1 [24],Active
same,Ratio,[25],1.6
C#Cc1ccc(/C=C/c2cc(OC)cc(=O)o2)cc1,fold change (FC),MC3T3-E1 [1],1.32 - 2.87
same,fold change (FC),MC3T3-E1 [2],0.85 to 1.25
same,Activity,MC3T3-E1 [3],Active
COc1cc(/C=C/c2ccc(Cl)cc2)oc(=O)c1,fold change (FC),MC3T3-E1 [1],1.32 - 2.87
same,fold change (FC),MC3T3-E1 [2],0.85 to 1.25
same,Activity,MC3T3-E1 [3],Active
COc1cc(/C=C/c2ccc(C(C)(C)C)cc2)oc(=O)c1,Activity,MC3T3-E1 [17],Active
same,fold change (FC),MC3T3-E1 [2],0.85 to 1.25
same,Activity,MC3T3-E1 [24],Active
CCc1ccc(/C=C/c2cc(OC)cc(=O)o2)cc1,Ratio,SMAD1/5/9 (Mus musculus) [6],1.1
same,fold change (FC),Mus musculus [7],2.23
same,fold change (FC),MC3T3-E1 [1],1.32 - 2.87
same,inhibition,RAW264 [5],Active
same,inhibition,RAW264 [8],Active
same,Ratio,SMAD1/5/9 (Mus musculus) [9],1
same,Activity,MC3T3-E1 [10],inactive
same,Ratio,SMAD1/5/9 (Mus musculus) [11],1
same,fold change (FC),Mus musculus [12],1.5
same,Ratio,[13],1.2
same,Activity,MC3T3-E1 [14],inactive
same,fold change (FC),Mus musculus [15],1.92
same,Ratio,[16],1.7
same,fold change (FC),MC3T3-E1 [2],0.85 to 1.25
same,Activity,MC3T3-E1 [3],Active
same,Activity,Mus musculus [18],Dose-dependent effect
same,Activity,Mus musculus [19],Dose-dependent effect
same,Activity,MC3T3-E1 [20],inactive
same,fold change (FC),Mus musculus [21],2.61
same,Activity,Mus musculus [22],Dose-dependent effect
same,Activity,Mus musculus [23],Dose-dependent effect
same,Ratio,[25],1.8
COc1cc(/C=C/c2ccc(C(F)(F)F)cc2)oc(=O)c1,fold change (FC),MC3T3-E1 [1],1.32 - 2.87
same,fold change (FC),MC3T3-E1 [2],0.85 to 1.25
same,Activity,MC3T3-E1 [3],Active
COc1cc(/C=C/c2ccccc2C)oc(=O)c1,Activity,MC3T3-E1 [1],Active
same,fold change (FC),MC3T3-E1 [2],0.85 to 1.25
same,Activity,MC3T3-E1 [3],Active
CCOc1cc(/C=C/c2ccccc2)oc(=O)c1,fold change (FC),MC3T3-E1 [2],0.85 to 1.25
same,Activity,MC3T3-E1 [3],inactive
same,Activity,MC3T3-E1 [4],inactive
COc1cc(/C=C/c2ccsc2)oc(=O)c1,Activity,MC3T3-E1 [1],inactive
same,fold change (FC),MC3T3-E1 [2],0.85 to 1.25
same,Activity,MC3T3-E1 [3],inactive
COc1cc(/C=C/c2ccc(F)cc2)oc(=O)c1,Activity,MC3T3-E1 [1],inactive
same,fold change (FC),MC3T3-E1 [2],0.85 to 1.25
same,Activity,MC3T3-E1 [3],inactive
COc1ccc(/C=C/c2cc(OC)cc(=O)o2)cc1 [YANGONIN],Activity,MC3T3-E1 [1],inactive
same,fold change (FC),MC3T3-E1 [2],0.85 to 1.25
same,Activity,MC3T3-E1 [3],inactive
CCCOc1cc(/C=C/c2ccccc2)oc(=O)c1,Activity,MC3T3-E1 [3],inactive
same,Activity,MC3T3-E1 [4],inactive
COc1cc(/C=C/c2ccccc2)oc(=O)c1 [DESMETHOXYYANGONIN],fold change (FC),MC3T3-E1 [26],0.85 to 1.25
same,Activity,MC3T3-E1 [27],Active
same,inhibition,RAW264 [5],inactive
same,fold change (FC),MC3T3-E1 [28],1.25
same,fold change (FC),MC3T3-E1 [2],0.85 to 1.25
same,Activity,MC3T3-E1 [4],Active
CCc1cccc(/C=C/c2cc(OC)cc(=O)o2)c1,Activity,MC3T3-E1 [1],Active
same,fold change (FC),MC3T3-E1 [2],0.85 to 1.25
same,Activity,MC3T3-E1 [3],Active
COc1cc(/C=C/C2CC2)oc(=O)c1,Activity,MC3T3-E1 [1],inactive
same,fold change (FC),MC3T3-E1 [2],0.85 to 1.25
same,Activity,MC3T3-E1 [3],inactive
COc1cc(/C=C/c2cccc(C)c2)oc(=O)c1,Activity,MC3T3-E1 [1],Active
same,fold change (FC),MC3T3-E1 [2],0.85 to 1.25
same,Activity,MC3T3-E1 [3],Active
CCc1ccccc1/C=C/c1cc(OC)cc(=O)o1,Activity,MC3T3-E1 [1],inactive
same,fold change (FC),MC3T3-E1 [2],0.85 to 1.25
same,Activity,MC3T3-E1 [3],inactive
